Data published in US20100197787A1, “Composition for Prevention of Hypoglycemic Condition” (priority 2005, published 2010).

Legend:
rat brain cells [1] = test: Promoting activity of intravenously administered BCAA in incorporation of carbohydrate into the brain (2DG-6P amount); type: in vivo; conditions: at 24 hours after intravenous administration, 1.5% by mass in 5% by mass glucose, 10 mL/kg/hr, male SD rats, versus control group (5% glucose) and mixed amino acid group, FIG. 2
Excerpt: Control group: A solution prepared by dissolving glucose at a concentration of 5% by mass in purified water was used as the test solution for the control group. Mixed amino acid group: A solution prepared by dissolving […] (registered trademark, manufactured by Otsuka Pharmaceutical Co., Ltd.) at a concentration of 1.5% by mass in purified water containing 5% by mass glucose was used as the test solution for the mixed amino acid group. Leucine group: A solution prepared by dissolving L-leucine at a concentration of 1.5% by mass in purified water containing 5% by mass glucose was used as the test solution for the leucine group. Isoleucine group: A solution prepared by dissolving L-isoleucine at a concentration of 1.5% by mass in purified water containing 5% by mass glucose was used as the test solution for the isoleucine group. Valine group: A solution prepared by dissolving L-valine at a concentration of 1.5% by mass in purified water containing 5% by mass glucose was used as the test solution for the valine group. Male […] SD rats (Nippon Clare) were kept for 14 days and given free access to food (purified feed: AIN-93G manufactured by Nippon Nosan Kogyo Co., Ltd.) and water. At the age of 8-week-old, the rats were grouped depending on the body weight into 5 groups (control group, mixed amino acid group, leucine group, isoleucine group and valine group). After the grouping, under ether anesthesia, the cervical region of each rat was opened, and a catheter was inserted into the jugular vein. The other end of the catheter was passed subcutaneously, exposed on the back and connected via a harness to, and fixed to, a swivel. Then each rat was housed in a separate metabolism cage. […] The separated plasma was measured for its 2DG level and blood glucose level in the same manner as in the test method in Test Example 1. […] After blood removal, the brain tissue was removed, mixed with 1N NaOH that was 4 parts of the brain tissue by weight, and then heated in a water bath at 60° C. for 1 hour to lyse the brain tissue. To the brain tissue lysate solution, 1N HCl in the same amount as that of 1N NaOH was added, thereby neutralizing the solution to give a neutralized homogenate of the brain tissue. The amount of 2DG-6P in the neutralized homogenate was measured in the same manner as in the test method in Test Example 1, to determine the amount of the carbohydrate incorporated into the brain cells. In statistical processing, after analysis of variance, Dunnett's multiple comparison with the control was carried out to test significant difference.

rat brain cells [2] = test: Promoting activity of orally administered branched amino acid in incorporation of carbohydrate into the brain (2DG-6P amount); type: in vivo; conditions: 1 hour after oral administration of suspension, 0.45 g/15 mL/kg BW, male Wistar rats, versus control group (physiological saline), FIG. 1
Description: Leucine group: An L-leucine suspension prepared by adding 3 g L-leucine to 100 mL physiological saline and suspending it with a homogenizer was used as a test solution of leucine group. Isoleucine group: An L-isoleucine suspension prepared by adding 3 g L-isoleucine to 100 mL physiological saline and suspending it with a homogenizer was used as a test solution of isoleucine group. Male 6-week-old Wistar rats (Charles River Japan, Inc.) were kept for 14 days and given free access to food (purified feed: AIN-93G manufactured by Nippon Nosan Kogyo Co., Ltd.) and water. At the age of 8-week-old, the rats were grouped depending on the body weight into 3 groups (control group, leucine group and isoleucine group). After the grouping, under ether anesthesia, the cervical region of each rat was opened, and a catheter was inserted into the jugular vein. The other end of the catheter was passed subcutaneously, exposed on the back and connected via a harness to, and fixed to, a swivel. Then each rat was housed in a separate metabolism cage. Physiological saline was administered via the catheter continuously at a rate of 1 mL/hr/body to the rat. […] 20 μL of the plasma was placed in a vial for liquid scintillation counter measurement, and then 5 mL scintillator was added to and mixed with the plasma, which was then measured for its tritium level (count) with a liquid scintillation counter to determine the amount of 2DG. The blood glucose level was measured by a glucose oxidase dye method. […] 900 μL of the separated supernatant was placed in a vial for liquid scintillation counter measurement, and then 5 mL scintillator was added to and mixed with the supernatant, which was then measured for its tritium level (count) with a liquid scintillation counter to determine the amount of 2DG. […] 900 μL of the separated supernatant was placed in a vial for liquid scintillation counter measurement, and then 10 mL scintillator was added to and mixed with the supernatant, which was then measured for its tritium level (count) with a liquid scintillation counter to determine the amount of 2DG and 2DG-6P. […]

CC[C@H](C)[C@H](N)C(=O)O [L-isoleucine]
amount of the carbohydrate incorporated into brain cells (amount of 2DG-6P) (rat brain cells [1]): higher than that of the control group and of the mixed amino acid group | amount of the carbohydrate incorporated into brain cells (amount of 2DG-6P) (rat brain cells [1]; listed as isoleucine): tendency to promote incorporation of the carbohydrate into brain cells was recognized | amount of the carbohydrate incorporated into brain cells (amount of 2DG-6P) (rat brain cells [2]): higher than that of the control group | amount of the carbohydrate incorporated into brain cells (amount of 2DG-6P) (rat brain cells [2]; listed as isoleucine): significantly promoted

CC(C)C[C@H](N)C(=O)O [L-leucine]
amount of the carbohydrate incorporated into brain cells (amount of 2DG-6P) (rat brain cells [1]): higher than that of the control group and of the mixed amino acid group | amount of the carbohydrate incorporated into brain cells (amount of 2DG-6P) (rat brain cells [2]): higher than that of the control group

CC(C)[C@H](N)C(=O)O [L-valine]
amount of the carbohydrate incorporated into brain cells (amount of 2DG-6P) (rat brain cells [1]): higher than that of the control group and of the mixed amino acid group | amount of the carbohydrate incorporated into brain cells (amount of 2DG-6P) (rat brain cells [1]; listed as valine): tendency to promote incorporation of the carbohydrate into brain cells was recognized
